Source: patent US8394442B2, “Process for the preparation of a flavoring concentrate, and a flavoring concentrate” (SYMRISE AG, priority 2007, dated 2013)
Like-named read-outs stand apart in the source and are kept apart here.

How the values were obtained:
[1] = log Pow: distribution coefficient between 1-octanol and water; conditions: 1-octanol/water
Description: Log Pow*=log Pow*−x*P′(x)/log Pow Formula 2: • where log Pow is the decimal logarithm of the distribution coefficient of a substance between 1-octanol and water, • x is the resulting solvent proportion based on the total volume proportion, normalized as 1.0, and • P′(x) is the polarity parameter for the corresponding solvent for the solvent proportion x.

[2] = log Pow* calculated by Formula 2 from log Pow and the polarity parameter P′(x) of the ethanol/water mixture
[3] = solvent ethanol, proportion 10%
[4] = solvent ethanol, proportion 30%
[5] = solvent ethanol, proportion 40%
[6] = solvent ethanol, proportion 50%
[7] = solvent ethanol, proportion 60%
[8] = solvent ethanol, proportion 70%
[9] = solvent ethanol, proportion 80%
[10] = solvent ethanol, proportion 90%
[11] = solvent ethanol, proportion 100%

Row | Molecule | log Pow [1] | log Pow* (P′ 2%) ([2]; solvent ethanol, proportion 2%) | log Pow* (P′ 4%) ([2]; solvent ethanol, proportion 4%) | log Pow* (P′ 6%) ([2]; solvent ethanol, proportion 6%) | log Pow* (P′ 8%) ([2]; solvent ethanol, proportion 8%) | log Pow* (P′ 10%) [2, 3] | log Pow* (P′ 30%) [2, 4] | log Pow* (P′ 40%) [2, 5] | log Pow* (P′ 50%) [2, 6] | log Pow* (P′ 60%) [2, 7] | log Pow* (P′ 70%) [2, 8] | log Pow* (P′ 80%) [2, 9] | log Pow* (P′ 90%) [2, 10] | log Pow* (P′ 100%) [2, 11] | also measured
1 | C=CC(C)(O)CCC=C(C)C (stereo not drawn) [Linalool] | 3.28 | – | – | – | – | – | – | – | – | – | – | – | – | – | log Pow* (P′ 2%) [2]: 3.22; log Pow* (P′ 4%) [2]: 3.16; log Pow* (P′ 6%) [2]: 3.11; log Pow* (P′ 8%) [2]: 3.06; log Pow* (P′ 10%) [2]: 3.01; log Pow* (P′ 30%) [2]: 2.62; log Pow* (P′ 40%) [2]: 2.48; log Pow* (P′ 50%) [2]: 2.36; log Pow* (P′ 60%) [2]: 2.26; log Pow* (P′ 70%) [2]: 2.17; log Pow* (P′ 80%) [2]: 2.09; log Pow* (P′ 90%) [2]: 2.03; log Pow* (P′ 100%) [2]: 1.97
2 | CC/C=C\CC1C(=O)CCC1CC(=O)OC (stereo not drawn) [Methyl jasmonate] | 2.12 | – | – | – | – | – | – | – | – | – | – | – | – | – | log Pow* (P′ 2%) [2]: 2.03; log Pow* (P′ 4%) [2]: 1.94; log Pow* (P′ 6%) [2]: 1.85; log Pow* (P′ 8%) [2]: 1.77; log Pow* (P′ 10%) [2]: 1.70; log Pow* (P′ 30%) [2]: 1.10; log Pow* (P′ 40%) [2]: 0.88; log Pow* (P′ 50%) [2]: 0.69; log Pow* (P′ 60%) [2]: 0.54; log Pow* (P′ 70%) [2]: 0.40; log Pow* (P′ 80%) [2]: 0.29; log Pow* (P′ 90%) [2]: 0.18; log Pow* (P′ 100%) [2]: 0.09
3 | CS [Methylmercaptan] | 0.65 | 0.34 | 0.05 | −0.22 | −0.48 | −0.73 | −2.68 | −3.40 | −4.00 | −4.51 | −4.95 | −5.33 | −5.67 | −5.97 | –
4 | CCCSSC [Methylpropyldisulfide] | 2.83 | – | – | – | – | – | – | – | – | – | – | – | – | – | log Pow* (P′ 2%) [2]: 2.76; log Pow* (P′ 4%) [2]: 2.69; log Pow* (P′ 6%) [2]: 2.63; log Pow* (P′ 8%) [2]: 2.57; log Pow* (P′ 10%) [2]: 2.51; log Pow* (P′ 30%) [2]: 2.06; log Pow* (P′ 40%) [2]: 1.90; log Pow* (P′ 50%) [2]: 1.76; log Pow* (P′ 60%) [2]: 1.64; log Pow* (P′ 70%) [2]: 1.54; log Pow* (P′ 80%) [2]: 1.46; log Pow* (P′ 90%) [2]: 1.38; log Pow* (P′ 100%) [2]: 1.31
5 | C=C(C)[C@@H]1CCC2=CC(=O)C[C@@H](C)[C@]2(C)C1 [Nootkatone] | 4.10 | 4.05 | 4.01 | 3.96 | 3.92 | 3.88 | 3.57 | 3.46 | 3.36 | 3.28 | 3.21 | 3.15 | 3.10 | 3.05 | –
6 | CC(=O)/C=C/C1C(C)=CCCC1(C)C (stereo not drawn) [alpha-ionone] | 3.86 | 3.81 | 3.76 | 3.71 | 3.67 | 3.63 | 3.30 | 3.18 | 3.08 | 2.99 | 2.92 | 2.85 | 2.80 | 2.75 | –
7 | C/C=C/C(=O)C1=C(C)C=CCC1(C)C [beta-damascenone] | 4.40 | 4.35 | 4.31 | 4.27 | 4.23 | 4.20 | 3.91 | 3.80 | 3.71 | 3.64 | 3.57 | 3.52 | 3.47 | 3.42 | –
8 | CCCCCC1CCCC(=O)O1 (stereo not drawn) [delta decalactone] | 2.42 | 2.34 | 2.26 | 2.19 | 2.12 | 2.05 | 1.52 | 1.33 | 1.17 | 1.03 | 0.92 | 0.81 | 0.72 | 0.64 | –
9 | CCCCCCC1CCC(=O)O1 (stereo not drawn) [gamma-decalactone] | 2.38 | 2.30 | 2.22 | 2.14 | 2.07 | 2.00 | 1.47 | 1.27 | 1.11 | 0.97 | 0.85 | 0.75 | 0.65 | 0.57 | –
10 | Ethyldimethylpyrazine | 1.60 | 1.48 | 1.36 | 1.25 | 1.14 | 1.04 | 0.25 | −0.05 | −0.29 | −0.50 | −0.68 | −0.83 | −0.97 | −1.09 | –

More lines, main results first:

Row | log Pow [1] | log Pow* (P′ 2%) ([2]; solvent ethanol, proportion 2%) | log Pow* (P′ 4%) ([2]; solvent ethanol, proportion 4%) | log Pow* (P′ 6%) ([2]; solvent ethanol, proportion 6%) | log Pow* (P′ 8%) ([2]; solvent ethanol, proportion 8%) | log Pow* (P′ 10%) [2, 3] | log Pow* (P′ 30%) [2, 4] | log Pow* (P′ 40%) [2, 5] | log Pow* (P′ 50%) [2, 6] | log Pow* (P′ 60%) [2, 7] | log Pow* (P′ 70%) [2, 8] | log Pow* (P′ 80%) [2, 9] | log Pow* (P′ 90%) [2, 10] | log Pow* (P′ 100%) [2, 11] | Molecule | also measured
11 | 2.30 | 2.21 | 2.13 | 2.05 | 1.98 | 1.91 | 1.36 | 1.15 | 0.98 | 0.84 | 0.72 | 0.61 | 0.51 | 0.43 | CCCCCC(=O)OC [Methylcapronate] | –
12 | 3.03 | – | – | – | – | – | – | – | – | – | – | – | – | – | CCCCCCCC=O [Octanal] | log Pow* (P′ 2%) [2]: 2.96; log Pow* (P′ 4%) [2]: 2.90; log Pow* (P′ 6%) [2]: 2.84; log Pow* (P′ 8%) [2]: 2.79; log Pow* (P′ 10%) [2]: 2.73; log Pow* (P′ 30%) [2]: 2.31; log Pow* (P′ 40%) [2]: 2.16; log Pow* (P′ 50%) [2]: 2.03; log Pow* (P′ 60%) [2]: 1.92; log Pow* (P′ 70%) [2]: 1.83; log Pow* (P′ 80%) [2]: 1.75; log Pow* (P′ 90%) [2]: 1.67; log Pow* (P′ 100%) [2]: 1.61
13 | 3.85 | 3.80 | 3.75 | 3.70 | 3.66 | 3.62 | 3.29 | 3.17 | 3.06 | 2.98 | 2.90 | 2.84 | 2.78 | 2.73 | CC(=O)/C=C/C1=C(C)CCCC1(C)C [beta-ionone] | –
14 | 4.04 | 3.99 | 3.94 | 3.90 | 3.86 | 3.82 | 3.50 | 3.39 | 3.29 | 3.21 | 3.14 | 3.08 | 3.02 | 2.98 | CC1=CCC(C(C)(C)S)CC1 (stereo not drawn) [p-menthenethiol-1,8] | –
15 | 2.09 | 1.99 | 1.90 | 1.82 | 1.74 | 1.66 | 1.05 | 0.83 | 0.64 | 0.48 | 0.35 | 0.23 | 0.12 | 0.03 | Isopropylmethoxypyrazine | –
